Entries after “also recorded” stand apart in the source; their conditions may differ. One block for each compound: values may come before it.
How the values were obtained:
GlgX = GlgX (Streptomyces venezuelae, UniProt F2RAW5); experiment: Fluorescence polarization (FP) binding, wild-type GlgX; conditions: FP, 1 nM fluoresceinated ligand, 25 °C
Excerpt: (§1) Fig. 5 Structure of the S. venezuelae GlgX-c-di-GMP complex. a Ribbon diagram of the S. venezuelae GlgX-c-di-GMP complex with one GlgX subunit colored cyan and the other salmon. Shown as sticks are the c-di-GMP molecules bound at each end of the antiparallel dimer. […] There was clear density for each c-di-GMP molecule. b Close up of the GlgX-c-di-GMP binding interaction. Key residues mediating contacts to the c-di-GMP are shown as sticks and labeled. Hydrogen bonds from GlgX residues that specify binding to the guanine are indicated by yellow dashed lines. c Fluorescence polarization (FP) binding isotherm showing interaction of GlgX, GlgXE47A-R49A and GlgXR438A-R579A for F-c-di-GMP in red, green and blue respectively. Also shown is the binding isotherm for GlgX binding to F-c-di-AMP in black. […] The y-axis and x-axis are millipolarization (mP) units and GlgX concentration (μM), respectively. Shown are representative binding curves for each. The experiments were performed in technical triplicates and the error between measurements reported. Error bars represent SD of the measurements. Source data are provided in the Source data file.
Thus, we used this F-tagged c-di-GMP in fluorescence polarization (FP) studies to quantify the interaction between GlgX and c-di-GMP. […] To ensure that the presence of the fluorescent tag was not impacting the GlgX interaction with c-di-GMP we used microscale thermophoresis (MST) to quantify c-di-GMP binding to GlgX. […] But to further probe the structural model we created GlgXE47A-R49A and GlgXR438A-R579A mutants and performed FP studies with these proteins.
To measure c-di-GMP binding to GlgX and GlgX mutants, 2′-O-(6-[Fluoresceinyl]aminohexylcarbamoyl)-cyclic diguanosine monophosphate (2′-Fluo-AHC-c-di-GMP) (BioLog), was used as a fluoresceinated reporter ligand. This molecule is conjugated via a nine atom spacer to one of the c-di-GMP 2′ hydroxyl groups. […] 2′-O-(6-[Fluoresceinyl]aminohexylcarbamoyl)-cyclic diadenosine monophosphate (2′-Fluo-AHC-c-di-AMP) (BioLog) was also used in binding studies to assess specificity of GlgX for c-di-GMP. […]

GlgXR438A-R579A = experiment: Fluorescence polarization binding, GlgXR438A-R579A; design: species or system Streptomyces venezuelae
Excerpt: as §1, with “Error bars represent SD of the measurements. Source data are provided in the Source data file.” left out
(§2) Thus, we used this F-tagged c-di-GMP in fluorescence polarization (FP) studies to quantify the interaction between GlgX and c-di-GMP. […] To ensure that the presence of the fluorescent tag was not impacting the GlgX interaction with c-di-GMP we used microscale thermophoresis (MST) to quantify c-di-GMP binding to GlgX. […]

GlgXE47A-R49A = experiment: Fluorescence polarization binding, GlgXE47A-R49A; design: species or system Streptomyces venezuelae
Excerpt: as §1, with “Error bars represent SD of the measurements. Source data are provided in the Source data file.” left out
as §2

His6-GlgX = experiment: DRaCALA with [32P]-c-di-GMP, wild-type GlgX; type: binding, Streptomyces venezuelae; conditions: excess (100 µM) unlabeled nucleotide
Protocol: (§3) Fig. 1 GlgX binds c-di-GMP. a Quantification of c-di-GMP in S. venezuelae cell extracts using LC-MS/MS. Cells were harvested during late vegetative growth (8–10 h), transition to sporulation (12–16 h), and sporulation (18–20 h). Data are presented as the mean of biological replicates ±SD (n = 3). […] Source data are provided in the Source data file. c [^32P]-c-di-GMP binds to GlgX in DRaCALA assay indicated by dark spots in the center of the nitrocellulose membrane. For competition, excess (100 µM) of unlabeled c-di-GMP, c-di-AMP, or GTP was added to the reaction containing [^32P]-c-di-GMP and GlgX.
To determine if the interaction between Vnz29170 (herein called GlgX) and c-di-GMP is direct, we purified an N-terminally His6-tagged GlgX protein and performed nano differential scanning fluorimetry (nanoDSF) thermal shift assays. […] In addition, we used differential radial capillary action of ligand assays (DRaCALA), which allows visualization of protein-bound radiolabeled ligand as a central spot after the application of the protein-ligand mix onto nitrocellulose. Using DRaCALA we confirmed that GlgX from S. venezuelae binds ^32P-labeled c-di-GMP.
For DRaCALA assays, purified His6-GlgX (15 μg) was mixed with 0.5 μl undiluted [^32P]-c-di-GMP (42 nM) (Hartmann Analytic GmbH, Braunschweig) in binding buffer (25 mM Tris pH 8; 150 mM NaCl; 2.5% (v/v) glycerol; 5 mM MgCl2) and the reaction was incubated at rt for 5 min. For competition assays, 100 μM nonlabeled nucleotides were added to the samples and incubated at rt for 5 min prior to the addition of [^32P]-c-di-GMP. Reactions (10 μl) were spotted on the same nitrocellulose membrane (Roth), air dried for 10 min and analyzed via phosphorimaging.

His6-GlgX (Vnz29170) = experiment: nanoDSF label-free thermal shift assay, wild-type GlgX; type: binding, Streptomyces venezuelae; conditions: 10 µM GlgX, 1 mM c-di-AMP
Protocol: as §3
To determine if the interaction between Vnz29170 (herein called GlgX) and c-di-GMP is direct, we purified an N-terminally His6-tagged GlgX protein and performed nano differential scanning fluorimetry (nanoDSF) thermal shift assays. […]
For label-free thermal shift assay experiments, 10 μM purified protein in 25 mM Tris pH 8, 150 mM NaCl, 2.5% (v/v) glycerol, and 5 mM MgCl2 was incubated without or with (1 mM) of nonlabeled c-di-GMP or c-di-AMP, respectively, at rt for 10 min. Reactions were subsequently analyzed in a Tycho NT.6 (NanoTemper Technologies) device with a 30 K/min thermal ramp and the internal fluorescence at 330 and 350 nm was recorded. […]

[1] = molecular target: S. venezuelae glycogen debranching enzyme GlgX (Vnz29170) (S. venezuelae); experiment: crystal structure; GlgX with 3 mM c-di-GMP, 3.34 Å; 40% ethylene glycol, 0.1 M sodium acetate pH 4.6; two GlgX dimers in the asymmetric unit

GlgX, sequence (F2RAW5 entry or part of it): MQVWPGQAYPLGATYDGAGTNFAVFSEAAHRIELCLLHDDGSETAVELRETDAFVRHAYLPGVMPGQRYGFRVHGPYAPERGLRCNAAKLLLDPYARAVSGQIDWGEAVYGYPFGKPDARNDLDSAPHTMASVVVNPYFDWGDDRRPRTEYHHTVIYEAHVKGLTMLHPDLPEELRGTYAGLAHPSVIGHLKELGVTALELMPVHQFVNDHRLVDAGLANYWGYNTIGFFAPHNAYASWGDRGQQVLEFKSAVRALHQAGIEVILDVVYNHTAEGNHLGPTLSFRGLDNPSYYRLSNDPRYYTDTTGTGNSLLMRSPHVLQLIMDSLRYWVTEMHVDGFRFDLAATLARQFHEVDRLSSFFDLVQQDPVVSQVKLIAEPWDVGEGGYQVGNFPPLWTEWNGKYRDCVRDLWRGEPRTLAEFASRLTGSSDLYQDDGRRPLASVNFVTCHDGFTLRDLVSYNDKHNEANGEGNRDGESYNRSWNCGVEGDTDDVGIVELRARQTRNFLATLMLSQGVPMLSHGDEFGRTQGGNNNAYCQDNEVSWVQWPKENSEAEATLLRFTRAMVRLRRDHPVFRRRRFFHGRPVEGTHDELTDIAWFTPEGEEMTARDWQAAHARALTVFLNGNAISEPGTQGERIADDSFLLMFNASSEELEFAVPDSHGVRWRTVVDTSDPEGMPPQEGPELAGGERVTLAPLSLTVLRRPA
GlgXR438A-R579A, sequence (as listed by the source, stated change not applied): as the sequence (F2RAW5 entry or part of it) above, with R438A, R579A counted along it
GlgXE47A-R49A, sequence (as listed by the source, stated change not applied): as the sequence (F2RAW5 entry or part of it) above, with E47A, R49A counted along it

Compound: 2′-O-(6-[Fluoresceinyl]aminohexylcarbamoyl)-cyclic diadenosine monophosphate [F-c-di-AMP]
- binding to WT GlgX in FP (GlgX): did not bind; also recorded: essentially no binding

Compound: 2′-O-(6-[Fluoresceinyl]aminohexylcarbamoyl)-cyclic diguanosine monophosphate [F-c-di-GMP]
- Kd (GlgX; WT GlgX titrated, pH 7.5, read-out: Kd): 8.2 ± 1 µM
- binding to mutant in FP (GlgXR438A-R579A): nonsaturable binding
- binding to mutant in FP (GlgXE47A-R49A): nonsaturable binding

Compound: Nc1nc2c(ncn2[C@@H]2O[C@H](COP(=O)(O)OP(=O)(O)OP(=O)(O)O)[C@@H](O)[C@H]2O)c(=O)[nH]1 [GTP]
- competition with 32P-c-di-GMP for binding to GlgX (His6-GlgX): not c-di-AMP or GTP competed

Compound: Nc1ncnc2c1ncn2[C@@H]1O[C@@H]2COP(=O)(O)O[C@H]3[C@@H](O)[C@H](n4cnc5c(N)ncnc54)O[C@@H]3COP(=O)(O)O[C@H]2[C@H]1O [c-di-AMP]
- effect of ligand on melting point of His6-GlgX (His6-GlgX (Vnz29170)): no effect
- competition with 32P-c-di-GMP for binding to GlgX (His6-GlgX): not c-di-AMP or GTP competed

- stoichiometry N [1]: 2
Compound: S. venezuelae glycogen debranching enzyme GlgX (Vnz29170)
